Source: article PMC2939729 (Cancer cell, 2010)

Legend:
BMK1 = BMK1 (Homo sapiens, UniProt Q13164); assay: in vitro ATP-site competition binding assay, panel of 402 kinases; conditions: 10 μM inhibitor
DCAMKL2 = molecular target: T1, DCAMKL2 (Homo sapiens, UniProt Q8N568); assay: as above; conditions: 10 μM inhibitor
T1 sequence (Q8N568 1-766): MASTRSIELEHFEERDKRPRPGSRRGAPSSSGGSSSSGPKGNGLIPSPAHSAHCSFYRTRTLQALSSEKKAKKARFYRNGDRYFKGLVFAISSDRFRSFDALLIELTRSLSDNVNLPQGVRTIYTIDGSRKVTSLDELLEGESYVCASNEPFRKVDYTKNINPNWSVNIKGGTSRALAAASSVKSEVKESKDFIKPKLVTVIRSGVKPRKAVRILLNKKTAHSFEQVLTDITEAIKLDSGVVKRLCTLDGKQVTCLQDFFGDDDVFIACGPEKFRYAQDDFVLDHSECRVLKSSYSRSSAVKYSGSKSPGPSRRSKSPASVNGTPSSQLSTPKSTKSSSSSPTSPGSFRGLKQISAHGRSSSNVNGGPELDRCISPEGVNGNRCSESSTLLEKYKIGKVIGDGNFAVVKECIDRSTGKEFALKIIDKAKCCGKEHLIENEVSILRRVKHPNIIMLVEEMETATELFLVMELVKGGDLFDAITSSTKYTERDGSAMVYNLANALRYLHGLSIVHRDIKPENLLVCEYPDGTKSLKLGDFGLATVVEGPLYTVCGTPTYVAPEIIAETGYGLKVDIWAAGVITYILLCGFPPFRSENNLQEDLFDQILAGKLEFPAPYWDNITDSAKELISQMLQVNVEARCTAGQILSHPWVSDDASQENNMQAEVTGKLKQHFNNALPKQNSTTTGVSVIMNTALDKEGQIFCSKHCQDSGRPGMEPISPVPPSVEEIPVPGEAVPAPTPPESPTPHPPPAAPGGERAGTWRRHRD

[1] = Pharmacokinetics in Sprague-Dawley rats; assay type: in vivo; conditions: single oral dose of 2 mg/kg

Chain of BMK1 (Q13164 whole entry, species assumed): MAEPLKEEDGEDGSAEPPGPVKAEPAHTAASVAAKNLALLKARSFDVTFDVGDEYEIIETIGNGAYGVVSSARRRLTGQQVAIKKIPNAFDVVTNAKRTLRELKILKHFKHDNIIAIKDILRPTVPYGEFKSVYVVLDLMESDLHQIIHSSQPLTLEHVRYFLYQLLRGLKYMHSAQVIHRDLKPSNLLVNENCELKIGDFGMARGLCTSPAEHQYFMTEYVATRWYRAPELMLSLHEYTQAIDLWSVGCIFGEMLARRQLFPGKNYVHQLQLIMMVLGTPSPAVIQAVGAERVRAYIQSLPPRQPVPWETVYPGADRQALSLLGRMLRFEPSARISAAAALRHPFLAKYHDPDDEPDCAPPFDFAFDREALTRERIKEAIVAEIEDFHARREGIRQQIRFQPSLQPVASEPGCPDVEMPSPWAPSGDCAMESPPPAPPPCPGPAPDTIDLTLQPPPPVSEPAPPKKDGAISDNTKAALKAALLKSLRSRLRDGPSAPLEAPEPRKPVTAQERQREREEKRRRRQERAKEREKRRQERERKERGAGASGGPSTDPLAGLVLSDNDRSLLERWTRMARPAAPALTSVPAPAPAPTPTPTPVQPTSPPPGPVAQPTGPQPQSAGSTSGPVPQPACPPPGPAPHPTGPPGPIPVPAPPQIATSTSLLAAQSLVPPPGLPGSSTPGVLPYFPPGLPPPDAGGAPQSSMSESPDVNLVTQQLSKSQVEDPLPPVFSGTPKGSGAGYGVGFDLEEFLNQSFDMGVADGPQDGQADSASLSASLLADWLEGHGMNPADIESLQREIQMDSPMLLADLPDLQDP

## CCOc1cc(N2CCC(O)CC2)ccc1Nc1ncc2c(n1)N(C)c1ccccc1C(=O)N2C [XMD8-92]
BMK1
  displacement by XMD8-92: greater than 90%
DCAMKL2
  displacement by XMD8-92: greater than 90%
[1]
  maximal plasma concentrations: approximately 500 nM
  time of maximal plasma concentrations: ≤ 30 min
[1]; 8 hr
  plasma concentration remaining 8 hr post dose: 34 nM
